# In patent publication US20250186491A1, “COMPOSITIONS AND METHODS FOR TREATING CANCER WITH CHIMERIC TIM RECEPTORS IN COMBINATION WITH INHIBITORS OF POLY (ADP-RIBOSE) POLYMERASE” (CERO THERAPEUTICS HOLDINGS, INC., priority 2020, published 2025):
# How the values were obtained:
# [1] = test system: Kuramochi ovarian cancer cells; test: Kuramochi cell number under PARP inhibitors, tracked via imaging; assay type: cell-based, human; details: for EC50 values (ranking), number of Kuramochi cells: five PARP inhibitors compared; for elimination of the Kuramochi culture: by t=50 h
# Description: Kuramochi ovarian cancer cells expressing an mCherry-NLS plasmid were incubated with 0.78 to 100 uM of the PARP inhibitor Niraparib. The number of Kuramochi cells/well was tracked via imaging.
# [2] = test system: A2780-mCh-NLS cells; details: FIG. 11A
# Description: (§1) Flow cytometry measurement of surface PS: A2780-mCh-NLS cells were treated with […] Niraparib or with equivalent volume of DMSO (control). 48 hours later samples were trypsinized and stained using a Tim4-Fc followed by a fluorescently-labeled secondary antibody to the Tim4-Fc. Samples were immediately analyzed via Flow cytometry.
# [3] = test system: Kuramochi cells
# Description: FIG. 8A: Flow cytometry measurement of surface PtdSer. Kuramochi cells were treated with 1.56 or 25 μM Niraparib or with equivalent volume of DMSO (control). 48 hours later samples were trypsinized and stained using a Tim4-Fc followed by a fluorescently-labeled secondary anti body to the Tim4-Fc. FIG. 8B: Kuramochi cells pre-treated for ˜20 hours with 1.56 μM Niraparib were co-cultured with pCTX133 and Untransduced CD4 T cells from donor 32 at a 2:1 T cell:Kuramochi ratio and a final Niraparib concentration of 1.56 μM. […] All data were collected via IncuCyte.
# as §1
structure (smiles),measurement,setting,value
C[C@]1(c2nc3c(C(N)=O)cccc3[nH]2)CCCN1 [Veliparib],impact on the number of detected Kuramochi cells,"[1]; t=50 h, of the five PARP inhibitors tested, FIG. 1B",least impact
Cn1ncnc1[C@H]1c2n[nH]c(=O)c3cc(F)cc(c23)N[C@@H]1c1ccc(F)cc1 [Talazoparib],"EC50 values (ranking), number of Kuramochi cells","[1]; t=50 h, FIG. 1B",most sensitive EC50 values
CNCc1ccc(-c2[nH]c3cc(F)cc4c3c2CCNC4=O)cc1 [Rucaparib],elimination of the Kuramochi culture,[1]; FIG. 1B,almost eliminate the Kuramochi culture
NC(=O)c1cccc2cn(-c3ccc([C@@H]4CCCNC4)cc3)nc12 [Niraparib],Tim4-Fc MFI,[2]; 1.56 and 25 μM Niraparib vs DMSO,increase
same,concentration at which anti-tumor effect begins,[2],at least 1.56 μM
same,number of Kuramochi cells in culture,"[1]; Niraparib 0.78 to 100 uM, t=50, FIG. 1A",decreases monotonically with increasing Niraparib concentration
same,elimination of the Kuramochi culture,[1]; FIG. 1B,almost eliminate the Kuramochi culture
same,"EC50 values (ranking), number of Kuramochi cells","[1]; t=50 h, FIG. 1B",most sensitive EC50 values
same,membrane phospholipid symmetry (Ptd-Ser exposure),"[3]; BRCA-2 mutated Kuramochi, brief exposure, 1.56 or 25 μM, FIG. 8A","elicits changes in membrane phospholipid symmetry, in a dose dependent manner"
same,growth of Kuramochi cells,[3]; FIG. 8A,effective in inhibiting growth
same,Tim4-Fc MFI,"[3]; Kuramochi, 25 μM Niraparib vs DMSO, FIG. 11B",increase
same,concentration at which anti-tumor effect begins,"[3]; Kuramochi, FIG. 11B",at least 25 μM
